Test results reported in US20030215817A1, “Modulation of gene expression in formation of fatty atherosclerotic lesions” (priority 2003, published 2003).
Where a name gives a salt, the structure may show the parent alone.

What was measured:
Rec1_36 (TTAG 155) mRNA = assay: quantified RT-PCR, Rec1_36; format: in vivo, rabbit; conditions: hypercholesterolemic plus lercanidipine racemate, eight weeks, H2 (normocholesterolemic)=1.0
Experimental: Nineteen of the isolated DST clones were further validated using RT-PCR analyses; the data are presented in FIGS. 6-24 and in Tables 5-23, below. For each DST examined, the optimal annealing temperature and reagent conditions were determined for the corresponding set of primers (see Table 25) based on results from a preliminary experiment. In eight separate reactions, each set of primers was assayed to find the optimal conditions by adjusting the following four parameters: primer concentration, dNTP concentration, MgCl2 concentration, and number of Taq polymerase units. Once optimal conditions were determined, each DST was run in duplicate multiple simultaneous reactions which usually included at least four dilutions of template (cDNA library), plus control reactions lacking template, and six sequential data points for numbers of cycles.
Reactions were performed using “Hot Start” PCR with the Clontech TaqStart antibody system (Cat. #5400-1). Each reaction contained 1 ml of the cDNA library dilution as template, determined amounts of AmpliTaq DNA polymerase (cat. #N808-0156), MgCl2, dNTPs (GibcoBRL cat. #10297-018), primer, and Clontech TaqStart Antibody in a 20 ml final reaction volume using 10×Taq buffer II (without MgCl2). Typically, a master mix containing all components except the template was prepared and aliquoted. […] At various times during the PCR run, tubes were removed sequentially on a predetermined schedule in order to quantitate expression of the target DST over a “window” of cycle times. After amplification, the samples were quantified via fluorimetry.
PCR was performed at annealing temperatures that were five degrees above the average melting temperature of each primer pair. For primers greater than 10 bases (in a 0.05M salt solution), melting temperature was calculated using the following formula: Tm=59.9+41[% GC]−[675/Primer Length], where %GC is the decimal value. Following determination of the average melting temperature of the primer pair, the annealing temperature was determined by adding five degrees to the average melting temperature. […]

[1] = test system: cholesterol acyl transferase; conditions: Soma et al. 1998; cited from earlier work

Compound: COC(=O)C1=C(C)NC(C)=C(C(=O)OC(C)(C)CN(C)CCC(c2ccccc2)c2ccccc2)C1c1cccc([N+](=O)[O-])c1 (racemic) [lercanidipine, lercanidipine hydrochloride]
- Relative Abundance Rec1_36, 100 pg F (Rec1_36 (TTAG 155) mRNA; cycle 30): 0.2
- Relative Abundance Rec1_36, 100 pg F (Rec1_36 (TTAG 155) mRNA; cycle 32): 0.5
- Relative Abundance Rec1_36, 100 pg F (Rec1_36 (TTAG 155) mRNA; cycle 34): 0.4
- cholesterol acyl transferase activity [1]: modulate
